Test results taken from patent US8993574B2, “Pyrrole antifungal agents” (F2G Ltd, priority 2008, dated 2015).
Converted amounts (≈) assume the structure as drawn.

Tests used:
Assay type in all cases: cell-based
Aspergillus terreus AT4 [1] = test: MIC, RPMI medium; conditions: for MIC grade, A. terreus: MIC banded into grades; for MIC: Aspergillus terreus, AT4, MIC banded into grades, read-out: MIC grade, A. terreus
How it was run: (§1)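 RPMI (2% glucose, 0.135 M MOPS, pH 7.0) microdilution; drug 50-0.05 mg/L doubling series; inoculum 1−2×10^4 cfu/mL; 24-48 h, 35° C; OD485; MIC = lowest conc. with >80% inhibition vs drug-free control.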

Aspergillus terreus AT49 [2] = test: MIC, RPMI medium; conditions: for MIC grade, A. terreus 49: MIC banded into grades; for MIC: Aspergillus terreus, AT49, MIC banded into grades, read-out: MIC grade, A. terreus 49
How it was run: as §1

[3] = test system: Aspergillus fumigatus AF293; test: MIC, RPMI medium; conditions: for MIC grade, A. fumigatus: MIC banded into grades; for MIC: Aspergillus fumigatus, AF293, MIC banded into grades, read-out: MIC grade, A. fumigatus
How it was run: as §1

Aspergillus niger [4] = test: MIC, RPMI medium; conditions: MIC banded into grades; for MIC: Aspergillus niger, read-out: MIC grade, A. niger
How it was run: as §1

Aspergillus flavus [5] = test: MIC, RPMI medium; conditions: MIC banded into grades; for MIC: Aspergillus flavus, read-out: MIC grade, A. flavus
How it was run: as §1

[6] = test system: Aspergillus fumigatus AF210; test: MIC, RPMI medium; conditions: for MIC grade, A. fumigatus 210: MIC banded into grades; for MIC: Aspergillus fumigatus, AF210, MIC banded into grades, read-out: MIC grade, A. fumigatus 210
How it was run: as §1

Aspergillus terreus AT4 [7] = test: MIC, YAG medium; conditions: 24 h at 35° C, MIC banded into grades; for MIC: Aspergillus terreus, read-out: MIC grade, A. terreus
How it was run: (§2)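 Spores from 5-day Sabouraud agar cultures were suspended in YAG medium (1% glucose, 1% ammonium chloride, 0.5% yeast extract) at final inocula of 1−2×10^4 cfu/mL against doubling dilutions of compound (50-0.05 mg/L; 0.5-0.0005 mg/L on repeat). Plates were incubated 24 h at 35° C. MIC was the lowest concentration giving >70% growth inhibition by OD485 versus drug-free control.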

Aspergillus terreus AT49 [8] = test: MIC, YAG medium; conditions: 24 h at 35° C, MIC banded into grades; for MIC: Aspergillus terreus, read-out: MIC grade, A. terreus 49
How it was run: as §2

[9] = test system: Aspergillus fumigatus AF293; test: MIC, YAG medium; conditions: 24 h at 35° C, MIC banded into grades; for MIC: Aspergillus fumigatus, read-out: MIC grade, A. fumigatus
How it was run: as §2

Aspergillus niger [10] = test: MIC, YAG medium; conditions: 24 h at 35° C, MIC banded into grades; for MIC: Aspergillus niger, read-out: MIC grade, A. niger
How it was run: as §2

Aspergillus flavus [11] = test: MIC, YAG medium; conditions: 24 h at 35° C, MIC banded into grades; for MIC: Aspergillus flavus, 24 h, read-out: MIC grade, A. flavus
How it was run: as §2

[12] = test system: Aspergillus fumigatus AF210; test: MIC, YAG medium; conditions: 24 h at 35° C, MIC banded into grades; for MIC: Aspergillus fumigatus, read-out: MIC grade, A. fumigatus 210
How it was run: as §2

SMILES | MIC (Aspergillus terreus AT4 [1]) [µg/mL] | MIC (Aspergillus terreus AT49 [2]) [µg/mL] | MIC [3] [µg/mL] | MIC (Aspergillus niger [4]) [µg/mL] | MIC (Aspergillus flavus [5]) [µg/mL] | MIC [6] [µg/mL] | MIC (Aspergillus terreus AT4 [7]) [µg/mL] | MIC (Aspergillus terreus AT49 [8]) [µg/mL] | MIC [9] [µg/mL] | MIC (Aspergillus niger [10]) [µg/mL] | MIC (Aspergillus flavus [11]) [µg/mL] | MIC [12] [µg/mL] | further results
COC(=O)Cn1ccc(C2CCC2)c1C(=O)C(=O)Nc1ccc(N2CCN(c3cc(C)cc(C)n3)CC2)cc1 [Example 107, (3-Cyclobutyl-2-{4-[4-(4,6-dimethyl-pyridin-2-yl)-piperazin-1-yl]-phenylaminooxalyl}-pyrrol-1-yl)-acetic acid methyl ester] |  |  |  |  |  |  |  |  |  |  |  |  | MIC grade, A. terreus (Aspergillus terreus AT4 [1]): 1 (a grade of 1 represents an MIC of greater than 10 mg/L); MIC grade, A. terreus 49 (Aspergillus terreus AT49 [2]): 1 (a grade of 1 represents an MIC of greater than 10 mg/L); MIC grade, A. fumigatus [3]: 3 (A grade of 3 represents an MIC of less than 1 mg/L); MIC grade, A. niger (Aspergillus niger [4]): 1 (a grade of 1 represents an MIC of greater than 10 mg/L); MIC grade, A. flavus (Aspergillus flavus [5]): 1 (a grade of 1 represents an MIC of greater than 10 mg/L); MIC grade, A. fumigatus 210 [6]: 2 (A grade of 2 represents an MIC of from 1 to 10 mg/L); MIC grade, A. terreus (Aspergillus terreus AT4 [7]): 1 (a grade of 1 represents an MIC of greater than 10 mg/L); MIC grade, A. terreus 49 (Aspergillus terreus AT49 [8]): 1 (a grade of 1 represents an MIC of greater than 10 mg/L); MIC grade, A. fumigatus [9]: 3 (A grade of 3 represents an MIC of less than 1 mg/L); MIC grade, A. niger (Aspergillus niger [10]): 1 (a grade of 1 represents an MIC of greater than 10 mg/L); MIC grade, A. flavus (Aspergillus flavus [11]): 1 (a grade of 1 represents an MIC of greater than 10 mg/L); MIC grade, A. fumigatus 210 [12]: 3 (A grade of 3 represents an MIC of less than 1 mg/L)
COCCn1c(C)cc(-c2ccccc2)c1C(=O)C(=O)Nc1ccc(N2CCOCC2)cc1F [Example 117, N-(2-Fluoro-4-morpholin-4-yl-phenyl)-2-[1-(2-methoxy-ethyl)-5-methyl-3-phenyl-1H-pyrrol-2-yl]-2-oxo-acetamide] | 1 to 10 (≈ 2.15 to 21.5 µM) | > 10 | 1 to 10 (≈ 2.15 to 21.5 µM) | < 1 | > 10 | 1 to 10 (≈ 2.15 to 21.5 µM) | < 1 | < 1 | < 1 | < 1 | < 1 | 1 to 10 (≈ 2.15 to 21.5 µM) | 
COCCn1c(C)cc(-c2ccccc2)c1C(=O)C(=O)Nc1ccc(N2CCOCC2)c(F)c1 [Example 126, N-(3-Fluoro-4-morpholin-4-yl-phenyl)-2-[1-(2-methoxy-ethyl)-5-methyl-3-phenyl-1H-pyrrol-2-yl]-2-oxo-acetamide] | 1 to 10 (≈ 2.15 to 21.5 µM) | 1 to 10 (≈ 2.15 to 21.5 µM) | 1 to 10 (≈ 2.15 to 21.5 µM) | > 10 | > 10 | 1 to 10 (≈ 2.15 to 21.5 µM) | < 1 | < 1 | < 1 | 1 to 10 (≈ 2.15 to 21.5 µM) | 1 to 10 (≈ 2.15 to 21.5 µM) | < 1 | 
Cc1cc(-c2ccccc2)c(C(=O)C(=O)Nc2cccc3c(F)cccc23)n1C [Example 127, 2-(1,5-Dimethyl-3-phenyl-1H-pyrrol-2-yl)-N-(5-fluoro-naphthalen-1-yl)-2-oxo-acetamide] | < 1 | < 1 | > 10 | < 1 | < 1 | > 10 | < 1 | < 1 | > 10 | < 1 | < 1 | 1 to 10 (≈ 2.59 to 25.9 µM) | 
Cc1cc(-c2ccccc2)c(C(=O)C(=O)Nc2ccc(-c3ncc(CN4CCCCC4)o3)cc2)n1C [Example 153, 2-(1,5-Dimethyl-3-phenyl-1H-pyrrol-2-yl)-2-oxo-N-[4-(5-piperdin-1-ylmethyl-oxazol-2-yl)-phenyl]-acetamide] |  |  |  |  |  |  |  |  |  |  |  |  | MIC grade, A. terreus (Aspergillus terreus AT4 [1]): 3 (A grade of 3 represents an MIC of less than 1 mg/L); MIC grade, A. terreus 49 (Aspergillus terreus AT49 [2]): 3 (A grade of 3 represents an MIC of less than 1 mg/L); MIC grade, A. fumigatus [3]: 2 (A grade of 2 represents an MIC of from 1 to 10 mg/L); MIC grade, A. niger (Aspergillus niger [4]): 3 (A grade of 3 represents an MIC of less than 1 mg/L); MIC grade, A. flavus (Aspergillus flavus [5]): 2 (A grade of 2 represents an MIC of from 1 to 10 mg/L); MIC grade, A. fumigatus 210 [6]: 2 (A grade of 2 represents an MIC of from 1 to 10 mg/L); MIC grade, A. terreus (Aspergillus terreus AT4 [7]): 2 (A grade of 2 represents an MIC of from 1 to 10 mg/L); MIC grade, A. terreus 49 (Aspergillus terreus AT49 [8]): 3 (A grade of 3 represents an MIC of less than 1 mg/L); MIC grade, A. fumigatus [9]: 3 (A grade of 3 represents an MIC of less than 1 mg/L); MIC grade, A. niger (Aspergillus niger [10]): 3 (A grade of 3 represents an MIC of less than 1 mg/L); MIC grade, A. flavus (Aspergillus flavus [11]): 3 (A grade of 3 represents an MIC of less than 1 mg/L); MIC grade, A. fumigatus 210 [12]: 2 (A grade of 2 represents an MIC of from 1 to 10 mg/L)

The next lines start with results.

MIC (Aspergillus terreus AT4 [1]) [µg/mL] | MIC (Aspergillus terreus AT49 [2]) [µg/mL] | MIC [3] [µg/mL] | MIC (Aspergillus niger [4]) [µg/mL] | MIC (Aspergillus flavus [5]) [µg/mL] | MIC [6] [µg/mL] | MIC (Aspergillus terreus AT4 [7]) [µg/mL] | MIC (Aspergillus terreus AT49 [8]) [µg/mL] | MIC [9] [µg/mL] | MIC (Aspergillus niger [10]) [µg/mL] | MIC (Aspergillus flavus [11]) [µg/mL] | MIC [12] [µg/mL] | SMILES | further results
> 10 | > 10 | > 10 | > 10 | > 10 | > 10 | > 10 | > 10 | 1 to 10 (≈ 1.71 to 17.1 µM) | > 10 | > 10 | < 1 | Cc1cc(C)nc(N2CCN(c3ccc(NC(=O)C(=O)c4c(-c5ccccc5)cc(C)n4Cc4ccccc4)cc3)CC2)c1 [Example 48, 2-(1-Benzyl-5-methyl-3-phenyl-1H-pyrrol-2-yl)-N-{4-[4-(4,6-dimethyl-pyridin-2-yl)-piperazin-1-yl]-phenyl}-2-oxo-acetamide] | 
< 1 | < 1 | 1 to 10 (≈ 1.82 to 18.2 µM) | 1 to 10 (≈ 1.82 to 18.2 µM) | 1 to 10 (≈ 1.82 to 18.2 µM) | 1 to 10 (≈ 1.82 to 18.2 µM) | < 1 | < 1 | < 1 | 1 to 10 (≈ 1.82 to 18.2 µM) | 1 to 10 (≈ 1.82 to 18.2 µM) | < 1 | Cc1cc(C)nc(N2CCN(c3ccc(NC(=O)C(=O)c4c(-c5ccccc5)cc5n4CCN(C)C5)cc3)CC2)c1 [Example 5, N-{4-[4-(4,6-Dimethyl-pyridin-2-yl)-piperazin-1-yl]-phenyl}-2-(2-methyl-7-phenyl-1,2,3,4-tetrahydro-pyrrolo[1,2-a]pyrazin-6-yl)-2-oxo-acetamide] | 
< 1 | < 1 | 1 to 10 (≈ 1.84 to 18.4 µM) | > 10 | 1 to 10 (≈ 1.84 to 18.4 µM) | 1 to 10 (≈ 1.84 to 18.4 µM) | < 1 | < 1 | < 1 | 1 to 10 (≈ 1.84 to 18.4 µM) | < 1 | < 1 | COCCn1ccc(-c2cccs2)c1C(=O)C(=O)Nc1ccc(N2CCN(c3cc(C)cc(C)n3)CC2)cc1 [Example 67, N-{4-[4-(4,6-Dimethyl-pyridin-2-yl)-piperazin-1-yl]-phenyl}-2-[1-(2-methoxy-ethyl)-3-thiophen-2-yl-1H-pyrrol-2-yl]-2-oxo-acetamide] | 
< 1 | < 1 | < 1 | < 1 | < 1 | < 1 | < 1 | < 1 | < 1 | < 1 | < 1 | < 1 | CCn1c(C)cc(-c2ccccc2)c1C(=O)C(=O)Nc1ccc(N2CCN(c3cc(C)cc(C)n3)CC2)cc1 [Example 34, N-{4-[4-(4,6-Dimethyl-pyridin-2-yl)-piperazin-1-yl]-phenyl}-2-(1-ethyl-5-methyl-3-phenyl-1H-pyrrol-2-yl)-2-oxo-acetamide] | 
> 10 | 1 to 10 (≈ 1.87 to 18.7 µM) | > 10 | > 10 | > 10 | > 10 | < 1 | < 1 | > 10 | > 10 | > 10 | < 1 | Cc1cc(C)nc(N2CCN(c3ccc(NC(=O)C(=O)c4c(-c5ccccc5)cc(C(C)C)n4C)cc3)CC2)c1 [Example 20, N-{4-[4-(4,6-Dimethyl-pyridin-2-yl)-piperazin-1-yl]-phenyl}-2-(5-isopropyl-1-methyl-3-phenyl-1H-pyrrol-2-yl)-2-oxo-acetamide] | 
< 1 | < 1 | < 1 | < 1 | < 1 | < 1 | < 1 | < 1 | < 1 | < 1 | < 1 | < 1 | Cc1cc(C)nc(N2CCN(c3ccc(NC(=O)C(=O)c4c(-c5ccccc5)cc5n4CCC5)cc3)CC2)c1 [Example 6, N-{4-[4-(4,6-Dimethyl-pyridin-2-yl)-piperazin-1-yl]-phenyl}-2-oxo-2-(2-phenyl-6,7-dihydro-5H-pyrrolizin-3-yl)-acetamide] | 
